Series [1] is described as follows: Particle size and particle size distribution of ingredients. Format: physicochemical. The note with it: for D50: median particle size of ingredient used for Dosage Form A; for D10 / D90: particle size distribution of ingredient used for Dosage Form A; for VMD: volume mean diameter D[4,3] of ingredient used for Dosage Form A. From the text: As used herein, the term “particle size” refers to particle diameter. Particle size and particle size distribution can be measured using, for example, a Hyac/Royco particle size analyzer, a Malvern particle size analyzer, a Beckman Coulter laser diffraction particle size analyzer, or a Shimadzu laser diffraction particle size analyzer. As used herein, the term “diameter” relates to a volumetric measurement based on an approximate spherical shape of a particle. In addition to encompassing free base clozapine particles of a given size, the present invention is also directed to formulations and solid oral dosage forms wherein the distribution of particle sizes of free base clozapine and the excipients are controlled. As used herein, a “distribution” refers to the number or concentration (i.e., percentage) of particles having a certain size, or range of sizes, within a given lot, batch, or solid oral dosage form of the present invention.
As used herein, “volume mean diameter,” when used in reference to the size of particles for use with the present invention, refers to the value of the volume moment mean as represented by D[4,3]. This value indicates the central point of frequency around which the distribution of surface area or volume rotates.
As used herein, the “median” particle size is synonymous with the “particle size D50,” in microns. For example, for the five particle values listed above, the median diameter, or particle size D50, would be 20 μm.
As used herein, “particle size D90,” refers a mixture wherein about 90% of all measurable particles have a diameter equal to or less than the value D90, in microns, and 10% of the measurable particles have a diameter greater than the value of D90, in microns.
The particle size and particle size distribution of the various excipient used in the particulate mixture of the present invention are listed in Table 2.

Series [2] in a line: Compaction index of excipients. The settings on record: force to fracture a solid mass prepared by compaction of 500 mg of powder under 1000 lbs pressure, 16/32″ die, flat face punches. Format: physicochemical. From the text: In some embodiments, the concentration of the non-polymeric water-soluble carrier, disintegrant, and water-insoluble polymer can be selected to optimize the physical integrity of the dosage forms of the present invention (i.e., to minimize the friability of the dosage forms of the present invention). Not being bound by any particular theory, the durability, robustness, and/or friability of the compressed dosage forms of the present invention can be estimated using the compaction index of the excipients used to prepare the dosage forms. As used herein, “compaction index” refers to the force in kiloponds (kp) required to fracture a solid mass prepared by compaction of 500 mg of powder under 1000 lbs pressure using a 16/32″ die and flat face punches. To obtain dosage forms having both low friability and low hardness, a mixture used to prepare the dosage forms can have a compaction index of at least about 5 kp/500 mg/1000 lbs. Not being bound by any particular theory, the compaction index can be used as an indicator of particle interactions in a compressed solid dosage form. For example, the compression of a dry mixture usually has a significant effect on the inter-particle interactions within the mixture, and can involve combinations of • (i) closer contact between particles and the exclusion of air; • (ii) alignment and interlocking of particles; • (iii) the development of stresses and shearing forces that result in fracture and the generation of smaller particles; • (iv) elastic and plastic deformations of particles that can change particle shape; and • (v) chemical bonding between adjacent particles, especially during long-term storage.
Depending on the properties of the excipients comprising the mixture, powdered mixtures can undergo elastic, plastic, or visco-elastic deformation, or brittle fracture, when placed under compressive force. After compression, a compressed dosage form tends to undergo elastic recovery, visco-elastic recovery or brittle fracture. […]

Where a SMILES comes first, the peptide text is derived from it.

In series [1], `OC[C@@H](O)[C@@H](O)[C@H](O)[C@H](O)CO` [Mannitol] came in with a D50 of 221 μm, a D10 of 81 μm, a D90 of 507 μm and a VMD of 263 μm. Moreover, in series [2], the Compaction index was 9 kp/500 mg/1000 lbs.
For the molecule `COC(=O)[C@H](Cc1ccccc1)NC(=O)[C@@H](N)CC(=O)O` [Aspartame] (H-Asp-Phe-OMe), in series [2], the Compaction index was determined as 10 kp/500 mg/1000 lbs.
In series [1], `OC[C@@H](O)[C@H](O)[C@@H](O)CO` [Xylitol] yielded a D50 of 167 μm, a D10 of 86 μm, a D90 of 310 μm and a VMD of 184 μm. Besides, the Compaction index in series [2] is reported as 0.7 kp/500 mg/1000 lbs.
In series [1], `CN1CCN(C2=Nc3cc(Cl)ccc3Nc3ccccc32)CC1` [Free base clozapine, 8-chloro-11-(4-methyl-1-piperazinyl)-5H-dibenzo[b,e][1,4]diazepine, reference compound] returned a D50 of 19 μm, a D10 of 5 μm, a D90 of 51 μm and a VMD of 25 μm.

The values are drawn from patent publication US7811604B1, “Non-effervescent, orally disintegrating solid pharmaceutical dosage forms comprising clozapine and methods of making and using the same” (Barr Laboratories, Inc., priority 2005, dated 2010).
